Structures can show the parent of a compound that is named as a salt.

In this assay the target is T1, recombinant human cytosolic PEPCK (GST-PEPCK) (Homo sapiens, UniProt P35558).
T1 construct: made in house; host or cells: E. coli
T1 sequence (P35558 1-622): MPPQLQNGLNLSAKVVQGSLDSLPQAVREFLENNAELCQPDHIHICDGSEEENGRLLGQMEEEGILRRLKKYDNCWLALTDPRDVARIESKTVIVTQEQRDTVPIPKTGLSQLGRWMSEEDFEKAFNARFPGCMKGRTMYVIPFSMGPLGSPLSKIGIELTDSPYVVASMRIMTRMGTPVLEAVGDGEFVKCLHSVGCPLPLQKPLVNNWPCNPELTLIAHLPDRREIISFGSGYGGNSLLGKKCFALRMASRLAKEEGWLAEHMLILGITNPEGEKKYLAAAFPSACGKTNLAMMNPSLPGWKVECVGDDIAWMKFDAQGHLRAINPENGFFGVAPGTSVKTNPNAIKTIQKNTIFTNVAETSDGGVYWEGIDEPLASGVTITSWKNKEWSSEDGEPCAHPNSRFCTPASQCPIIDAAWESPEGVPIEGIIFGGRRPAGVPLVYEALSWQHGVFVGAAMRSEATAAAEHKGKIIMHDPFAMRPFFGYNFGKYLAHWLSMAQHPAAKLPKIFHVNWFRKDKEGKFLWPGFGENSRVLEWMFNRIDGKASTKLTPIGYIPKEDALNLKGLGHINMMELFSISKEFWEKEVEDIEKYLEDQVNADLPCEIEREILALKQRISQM
Description: PEPCK enzyme assay (coupled to pyruvate kinase / lactate dehydrogenase, absorbance at 340 nm). As to conditions: in vitro PEPCK enzymatic assay; GTP at 3 fold and OAA at 10 fold Km; final DMSO 10%; room temperature, twenty minutes. It is filed as biochemical. How it is done: E. coli cells expressing GST-PEPCK were suspended in 5 volumes of lysis buffer (50 mM Tris-hydroxymethyl aminomethyl (TRIS), 150 mM sodium chloride (NaCl), 10 mM ethylene-diametetraacetic acid (EDTA), 5 mM dithiothreitol(DTT), 1% Nonidet P-40, pH 7.4) in the presence of protease inhibitors, incubated with lysozyme at 200 micrograms/ml for 30 min. at room temperature, and sonicated 4×30 seconds at 4 degrees C. After centrifugation at 12,000×g for 20 min. to remove insoluble material, the supernatant was loaded onto glutathione Sepharose (Pharmacia), washed with lysis buffer followed by washing with lysis buffer in the absence of NP-40. GST-PEPCK was eluted with the same buffer containing 20 mM glutathione. The eluted protein was concentrated and dialyzed against 25 mM Hepes(N-[2-hydroxyethyl]piperazine-N′[2-ethanesulfonic acid), 150 mM NaCl, 2.5 mM EDTA, 5 mM DTT, 30% glycerol, pH 7.4, and stored at −20° C.
The inhibitory effect of the compounds of the present invention on PEPCK enzymatic activity was determined using recombinant human cytosolic PEPCK, expressed and purified from E.coli as a GST-fusion. Guanosine triphosphate (GTP) and manganese dependent PEPCK enzyme activity catalyzed the decarboxylation of oxalacetate leading to the formation of guanosine diphosphate (GDP) and phosphoenol pyruvate (PEP). This reaction is coupled to pyruvate kinase and lactate dehydrogenase catalyzed reactions and the overall reaction rate determined by measuring the change in absorbance at 340 nm (Chang, H. C. and Lane M. D., J. Biol. Chem. 241:2413–2420, 1966). The following modifications were made to the protocol: 2.5 μg of recombinant, human cytosolic glutathione-S-transferase (GST)-PEPCK was added to a reaction mixture at room temperature which contained 0.3 mM GTP, 0.3 mM oxaloacetate (OAA), 3 mM magnesium chloride (MgCl2), 0.075 mM manganese chloride (MnCl2), 30 mM potassium phosphates (KPO4), pH 7.6, 1 mM dithiothreitol (DTT), 0.2 mM adenosine diphosphate (ADP), 1 mM nicotinamide adenine dinucleotide, reduced form (NADH), 0.9 Units/ml each of pyruvate kinase and lactate dehydrogenase and 1 mg/ml bovine serum albumin (BSA). Test compounds were added such that final concentration of DMSO was 10%. Reactions were run for twenty minutes.
Km values for GTP and OAA were determined according to Michelis-Menton conditions as described in Comish-Bowden (Fundamentals of Enzyme Kinetics, 1995) in essentially the coupled assay conditions described above. […] Test compounds were added to reactions over a range of concentrations and IC50's were calculated from plots of inhibitor concentration versus enzyme rate. This method of determination of IC50 values is equally applicable to calculations based on PEPCK cellular assay.

As for `CCCCn1c(=O)n(Cc2ccccc2F)c(=O)c2[nH]c(Cc3ccc(S(=O)(=O)Nc4ncccn4)cc3)nc21` [Example 31, 4-[3-Butyl-1-(2-fluoro-benzyl)-2,6-dioxo-2,3,6,7-tetrahydro-1H-purin-8-ylmethyl]-N-pyrimidin-2-yl-benzenesulfonamide], the IC50 stood at 6350 nM.

In the case of `Cc1nc(N)sc1S(=O)(=O)Nc1ccc(Cc2nc3c([nH]2)c(=O)n(Cc2ccccc2F)c(=O)n3CC2CC2)cc1` [Example 11, 2-Amino-4-methyl-thiazole-5-sulfonic acid {4-[3-cyclopropylmethyl-1-(2-fluoro-benzyl)-2,6-dioxo-2,3,6,7-tetrahydro-1H-purin-8-ylmethyl]-phenyl}-amide trifluoro-acetic acid salt], the half-inhibitory concentration (IC50) was 230 nM.

Take `Cc1nn(C)cc1S(=O)(=O)Nc1ccc(Cc2nc3c([nH]2)c(=O)n(Cc2ccccc2F)c(=O)n3CC2CC2)cc1` [Example 7, 1,3-Dimethyl-1H-pyrazole-4-sulfonic acid {4-[3-cyclopropylmethyl-1-(2-fluoro-benzyl)-2,6-dioxo-2,3,6,7-tetrahydro-1H-purin-8-ylmethyl]-phenyl}-amide]: the half-inhibitory concentration (IC50) was 150 nM.

For the molecule `CCCCn1c(=O)n(Cc2ccccc2F)c(=O)c2[nH]c(Cc3ccc(S(=O)(=O)Nc4cccnc4)cc3)nc21` [Example 30, 4-[3-Butyl-1-(2-fluoro-benzyl)-2,6-dioxo-2,3,6,7-tetrahydro-1H-purin-8-ylmethyl]-N-pyridin-3-yl-benzenesulfonamide], the IC50 was determined as 4100 nM.

For `Cn1cc(S(=O)(=O)Nc2ccc(Cc3nc4c([nH]3)c(=O)n(Cc3ccccc3F)c(=O)n4CC3CC3)cc2)cn1` [Example 2, 1-Methyl-1H-pyrazole-4-sulfonic acid {4-[3-cyclopropylmethyl-1-(2-fluoro-benzyl)-2,6-dioxo-2,3,6,7-tetrahydro-1H-purin-8-ylmethyl]-phenyl}-amide], the IC50 worked out at 390 nM.

Turning to `O=c1c2[nH]c(Cc3ccc(NS(=O)(=O)c4cccc5cccnc45)cc3)nc2n(CC2CC2)c(=O)n1Cc1ccccc1F` [Example 19, Quinoline-8-sulfonic acid {4-[3-cyclopropylmethyl-1-(2-fluoro-benzyl)-2,6-dioxo-2,3,6,7-tetrahydro-1H-purin-8-ylmethyl]-phenyl}-amide], the 50% inhibitory concentration (IC50) is 450 nM.

Regarding `Cc1nn(C)c(Cl)c1S(=O)(=O)Nc1ccc(Cc2nc3c([nH]2)c(=O)n(Cc2ccccc2F)c(=O)n3CC2CCC2)nc1` [Example 26, 5-Chloro-1,3-dimethyl-1H-pyrazole-4-sulfonic acid {6-[3-cyclobutylmethyl-1-(2-fluoro-benzyl)-2,6-dioxo-2,3,6,7-tetrahydro-1H-purin-8-ylmethyl]-pyridin-3-yl}-amide], the half-inhibitory concentration (IC50) stood at 980 nM.

For `CC(=O)Nc1nc(C)c(S(=O)(=O)Nc2ccc(Cc3nc4c([nH]3)c(=O)n(Cc3ccccc3F)c(=O)n4CC3CC3)cc2)s1` [Example 10, N-(5-{4-[3-Cyclopropylmethyl-1-(2-fluoro-benzyl)-2,6-dioxo-2,3,6,7-tetrahydro-1H-purin-8-ylmethyl]-phenylsulfamoyl}-4-methyl-thiazol-2-yl)-acetamide], the concentration for half-maximal inhibition (IC50) was determined as 220 nM.

On to `Cc1nn(C)cc1S(=O)(=O)N(C)c1ccc(Cc2nc3c([nH]2)c(=O)n(Cc2ccccc2F)c(=O)n3CC2CC2)cc1` [Example 27, 1,3-Dimethyl-1H-pyrazole-4-sulfonic acid {4-[3-cyclopropylmethyl-1-(2-fluoro-benzyl)-2,6-dioxo-2,3,6,7-tetrahydro-1H-purin-8-ylmethyl]-phenyl}-methyl-amide], for which the IC50 amounted to 1450 nM.

In general, IC50 refers to the point on the concentration scale where inhibition reaches its midpoint.
